The record followed here is patent US10858406B2 (priority 2014, dated 2020).

For the test, the system named is potassium ion channel current of the DRG neurons. The test is classed as cell-based, SD rats. The following applies: 5 mM.

Consider `Nc1ccncc1` [4AP, 4-aminopyridine], for which the Current inhibition rate worked out at 0.338 and the “Current recorded after loading” value worked out at 0.9766 nA.
